Data from the supplement of paper PMC12463676, “Small-molecule dissolution of stress granules by redox modulation benefits ALS models” (Nature Chemical Biology, 2025).

Assays:
[1] = compound: NC(=O)CCCCC1CCSS1 [lipoamide]; experiment: thermal stability z-score vs DMSO; higher = more thermally stabilized by treatment; conditions: HeLa, lipoamide concentration 100 µM
Description: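 Cellular thermal proteome profiling in HeLa cells. Cells were treated with 100 µM lipoamide for 1 h, with or without 1 mM arsenate for a further 1 h, then heated to ten temperatures (37-66.3 °C), and soluble protein was quantified by TMT mass spectrometry relative to 0.1% DMSO controls. The thermal stability score (sum of log2 fold changes minus the abundance score) was transformed to a z-score; mean of n = 3 experiments.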

[2] = compound: O=[As]([O-])(O)O.[K+] [potassium arsenate]; experiment: as above; conditions: HeLa; arsenate concentration 1 mM
Description: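 Cellular thermal proteome profiling in HeLa cells treated with 1 mM arsenate for 1 h (DMSO pretreatment), heated to ten temperatures (37-66.3 °C). Soluble protein was quantified by TMT mass spectrometry relative to DMSO controls; the thermal stability score was transformed to a z-score; mean of n = 3 experiments.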

[3] = arsenate co-treatment: 1 mM arsenate 1 h
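Note: each temperature applied for 3 min, abundance score taken as mean log2 fold change at the two lowest temperatures, z-score obtained by mean subtraction and division by SD.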

UniProt Q9NQY0, sequence (Q9NQY0 whole entry): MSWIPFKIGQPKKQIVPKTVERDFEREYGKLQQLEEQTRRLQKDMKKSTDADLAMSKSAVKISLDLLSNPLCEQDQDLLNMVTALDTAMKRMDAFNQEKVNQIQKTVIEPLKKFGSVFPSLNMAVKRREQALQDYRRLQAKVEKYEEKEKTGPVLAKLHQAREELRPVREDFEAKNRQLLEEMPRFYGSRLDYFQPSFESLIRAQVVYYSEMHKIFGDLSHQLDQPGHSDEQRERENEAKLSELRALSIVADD
UniProt Q9H694, sequence (Q9H694 whole entry): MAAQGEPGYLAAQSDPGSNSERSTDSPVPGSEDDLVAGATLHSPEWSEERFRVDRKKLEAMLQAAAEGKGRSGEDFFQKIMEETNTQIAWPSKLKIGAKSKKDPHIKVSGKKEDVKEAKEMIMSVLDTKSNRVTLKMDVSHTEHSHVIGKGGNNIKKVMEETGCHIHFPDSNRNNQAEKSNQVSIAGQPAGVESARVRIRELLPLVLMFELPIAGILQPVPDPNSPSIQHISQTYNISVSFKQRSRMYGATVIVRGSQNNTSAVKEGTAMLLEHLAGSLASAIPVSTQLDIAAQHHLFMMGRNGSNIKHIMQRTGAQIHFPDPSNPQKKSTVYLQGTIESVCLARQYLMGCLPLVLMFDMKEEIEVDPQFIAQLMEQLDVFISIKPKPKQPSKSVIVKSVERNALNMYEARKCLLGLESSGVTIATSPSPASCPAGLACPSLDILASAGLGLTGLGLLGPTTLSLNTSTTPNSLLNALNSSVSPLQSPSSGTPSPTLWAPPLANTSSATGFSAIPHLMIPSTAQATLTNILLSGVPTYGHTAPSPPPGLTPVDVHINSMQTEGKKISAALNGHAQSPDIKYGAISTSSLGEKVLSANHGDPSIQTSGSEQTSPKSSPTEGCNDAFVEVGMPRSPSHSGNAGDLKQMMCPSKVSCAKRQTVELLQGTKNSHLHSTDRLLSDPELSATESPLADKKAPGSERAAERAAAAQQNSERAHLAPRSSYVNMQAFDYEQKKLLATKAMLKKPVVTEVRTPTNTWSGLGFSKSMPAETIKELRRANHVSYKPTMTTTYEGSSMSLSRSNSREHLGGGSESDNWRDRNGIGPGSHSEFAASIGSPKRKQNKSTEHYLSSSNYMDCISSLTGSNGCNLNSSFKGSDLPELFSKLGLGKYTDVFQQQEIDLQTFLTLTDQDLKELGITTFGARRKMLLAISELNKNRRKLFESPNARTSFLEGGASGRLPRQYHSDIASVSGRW
UniProt Q14692, sequence (Q14692 whole entry): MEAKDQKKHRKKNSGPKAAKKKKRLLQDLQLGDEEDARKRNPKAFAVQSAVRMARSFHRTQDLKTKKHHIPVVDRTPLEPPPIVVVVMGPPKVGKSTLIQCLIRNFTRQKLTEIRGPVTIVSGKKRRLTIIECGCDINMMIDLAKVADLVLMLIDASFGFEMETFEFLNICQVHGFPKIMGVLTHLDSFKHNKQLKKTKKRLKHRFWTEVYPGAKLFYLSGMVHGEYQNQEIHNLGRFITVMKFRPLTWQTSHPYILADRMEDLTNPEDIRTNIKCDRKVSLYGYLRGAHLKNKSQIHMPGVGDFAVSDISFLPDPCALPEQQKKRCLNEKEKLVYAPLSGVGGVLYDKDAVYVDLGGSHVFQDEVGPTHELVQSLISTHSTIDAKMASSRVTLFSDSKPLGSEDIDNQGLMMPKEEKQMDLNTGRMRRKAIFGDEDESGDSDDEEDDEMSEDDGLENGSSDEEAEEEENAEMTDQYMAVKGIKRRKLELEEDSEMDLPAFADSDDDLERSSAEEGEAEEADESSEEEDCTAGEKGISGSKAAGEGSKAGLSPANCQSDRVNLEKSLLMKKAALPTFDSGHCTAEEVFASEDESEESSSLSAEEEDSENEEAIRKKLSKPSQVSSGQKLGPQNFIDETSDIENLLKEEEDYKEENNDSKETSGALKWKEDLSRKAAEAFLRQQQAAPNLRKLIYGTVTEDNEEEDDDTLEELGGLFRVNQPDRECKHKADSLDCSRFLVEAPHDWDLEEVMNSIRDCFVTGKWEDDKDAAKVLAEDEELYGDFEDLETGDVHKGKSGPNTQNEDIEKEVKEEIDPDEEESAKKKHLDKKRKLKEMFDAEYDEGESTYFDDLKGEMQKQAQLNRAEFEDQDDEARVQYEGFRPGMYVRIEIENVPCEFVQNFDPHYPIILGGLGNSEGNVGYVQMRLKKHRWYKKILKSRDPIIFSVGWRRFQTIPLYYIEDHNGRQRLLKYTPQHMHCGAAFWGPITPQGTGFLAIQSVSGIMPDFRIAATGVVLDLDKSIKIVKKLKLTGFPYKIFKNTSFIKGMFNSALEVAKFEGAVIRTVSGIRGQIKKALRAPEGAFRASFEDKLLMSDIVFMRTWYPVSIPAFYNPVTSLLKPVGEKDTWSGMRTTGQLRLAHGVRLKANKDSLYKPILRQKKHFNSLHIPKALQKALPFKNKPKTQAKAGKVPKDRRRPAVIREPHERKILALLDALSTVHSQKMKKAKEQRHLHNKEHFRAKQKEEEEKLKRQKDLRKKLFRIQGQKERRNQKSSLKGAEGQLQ
UniProt P78537, sequence (P78537 whole entry): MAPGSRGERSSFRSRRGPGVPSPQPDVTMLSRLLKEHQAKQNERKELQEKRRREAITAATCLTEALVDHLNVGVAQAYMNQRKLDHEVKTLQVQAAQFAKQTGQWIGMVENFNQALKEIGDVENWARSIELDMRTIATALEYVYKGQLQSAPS
UniProt Q86WA6, sequence (Q86WA6 whole entry): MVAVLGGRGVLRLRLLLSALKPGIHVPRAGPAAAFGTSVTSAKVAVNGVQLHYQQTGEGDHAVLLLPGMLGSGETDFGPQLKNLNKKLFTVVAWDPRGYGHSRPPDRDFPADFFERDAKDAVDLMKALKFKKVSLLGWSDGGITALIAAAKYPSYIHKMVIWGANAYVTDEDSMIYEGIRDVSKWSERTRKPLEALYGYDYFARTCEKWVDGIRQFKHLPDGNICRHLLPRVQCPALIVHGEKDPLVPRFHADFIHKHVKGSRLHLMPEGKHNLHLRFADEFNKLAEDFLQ
UniProt Q13490, sequence (Q13490 whole entry): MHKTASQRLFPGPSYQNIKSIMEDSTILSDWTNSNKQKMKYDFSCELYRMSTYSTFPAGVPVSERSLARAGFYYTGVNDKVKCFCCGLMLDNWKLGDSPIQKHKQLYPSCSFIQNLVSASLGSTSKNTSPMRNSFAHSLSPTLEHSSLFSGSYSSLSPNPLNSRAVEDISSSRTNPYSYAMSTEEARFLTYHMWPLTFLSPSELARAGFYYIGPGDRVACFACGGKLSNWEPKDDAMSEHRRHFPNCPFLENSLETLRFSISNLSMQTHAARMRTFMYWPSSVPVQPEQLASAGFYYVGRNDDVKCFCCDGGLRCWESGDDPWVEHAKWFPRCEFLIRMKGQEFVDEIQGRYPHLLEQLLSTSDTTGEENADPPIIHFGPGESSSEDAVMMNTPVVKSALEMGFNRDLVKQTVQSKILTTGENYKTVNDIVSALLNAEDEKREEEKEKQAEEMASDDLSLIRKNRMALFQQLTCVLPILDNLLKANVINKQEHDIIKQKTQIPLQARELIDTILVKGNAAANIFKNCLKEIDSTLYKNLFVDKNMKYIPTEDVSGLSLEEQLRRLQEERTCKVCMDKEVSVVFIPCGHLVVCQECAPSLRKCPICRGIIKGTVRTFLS
UniProt P30043, sequence (P30043 whole entry): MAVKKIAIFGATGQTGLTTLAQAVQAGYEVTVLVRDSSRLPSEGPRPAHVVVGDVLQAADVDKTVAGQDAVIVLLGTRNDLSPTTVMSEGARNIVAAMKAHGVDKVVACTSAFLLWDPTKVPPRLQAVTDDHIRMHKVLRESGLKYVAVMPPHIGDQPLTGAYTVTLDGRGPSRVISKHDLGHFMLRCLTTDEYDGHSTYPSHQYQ
UniProt P55957, sequence (P55957 whole entry): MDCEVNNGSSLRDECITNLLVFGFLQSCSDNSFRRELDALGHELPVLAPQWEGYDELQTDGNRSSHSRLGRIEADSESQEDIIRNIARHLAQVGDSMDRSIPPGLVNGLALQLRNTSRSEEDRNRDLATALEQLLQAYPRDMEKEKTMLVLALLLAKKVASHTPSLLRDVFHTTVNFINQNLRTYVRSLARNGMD
UniProt Q8WY22, sequence (Q8WY22 whole entry): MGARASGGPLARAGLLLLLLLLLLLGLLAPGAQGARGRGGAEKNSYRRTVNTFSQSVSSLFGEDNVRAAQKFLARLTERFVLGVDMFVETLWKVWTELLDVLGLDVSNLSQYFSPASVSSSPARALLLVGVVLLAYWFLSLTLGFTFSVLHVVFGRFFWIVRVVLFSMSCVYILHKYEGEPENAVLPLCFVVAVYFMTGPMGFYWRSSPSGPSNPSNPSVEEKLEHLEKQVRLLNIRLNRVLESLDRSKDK
UniProt Q9BUH8, sequence (Q9BUH8 whole entry): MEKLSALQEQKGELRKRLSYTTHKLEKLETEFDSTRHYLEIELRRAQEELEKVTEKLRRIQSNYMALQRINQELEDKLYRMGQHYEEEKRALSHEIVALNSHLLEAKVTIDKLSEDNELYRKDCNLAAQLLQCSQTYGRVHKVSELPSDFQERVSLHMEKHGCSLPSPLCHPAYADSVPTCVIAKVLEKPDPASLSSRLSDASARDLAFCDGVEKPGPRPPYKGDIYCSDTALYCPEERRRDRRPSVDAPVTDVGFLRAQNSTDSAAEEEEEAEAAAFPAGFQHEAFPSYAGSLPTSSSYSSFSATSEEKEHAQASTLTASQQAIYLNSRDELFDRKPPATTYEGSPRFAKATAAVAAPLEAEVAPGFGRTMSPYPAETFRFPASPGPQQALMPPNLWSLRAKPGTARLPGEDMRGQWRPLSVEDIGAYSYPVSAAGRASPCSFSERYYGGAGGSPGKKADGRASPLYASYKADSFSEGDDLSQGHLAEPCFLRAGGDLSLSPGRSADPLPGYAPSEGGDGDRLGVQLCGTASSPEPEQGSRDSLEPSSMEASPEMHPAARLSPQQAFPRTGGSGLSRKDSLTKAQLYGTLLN
UniProt Q53S33, sequence (Q53S33 whole entry): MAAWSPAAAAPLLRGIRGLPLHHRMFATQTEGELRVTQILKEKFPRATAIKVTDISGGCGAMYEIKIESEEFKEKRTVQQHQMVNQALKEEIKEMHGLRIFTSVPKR

Target	thermal stability z-score [1, 3]	thermal stability z-score ([1]; arsenate co-treatment: none)	thermal stability z-score [2]
BCR (UniProt P11274)	-0.0665	-0.0479	0.0296
BCS1L (UniProt Q9Y276)	0.472	0.86	0.3
BDH2 (UniProt Q9BUT1)	-0.0305	-0.246	-0.414
BECN1 (UniProt Q14457)	-0.39	-0.238	-0.408
BEGAIN (UniProt Q9BUH8)	-0.0429	-0.117	0.144
BET1 (UniProt O15155)	0.642	1.03	1.11
BICC1 (UniProt Q9H694)	0.291	0.353	-0.19
BICD1 (UniProt Q96G01)	-1.17	-1.22	-1.74
BICD2 (UniProt Q8TD16)	0.184	0.121	0.755
BID (UniProt P55957)	0.895	1.36	0.587
BIN1 (UniProt O00499)	-0.407	-0.803	0.183
BIN3 (UniProt Q9NQY0)	-0.115	-0.19	-0.201
BIRC2 (UniProt Q13490)	-0.731	-0.56	-0.483
BIRC5 (UniProt O15392)	0.166	0.186	0.136
BIRC6 (UniProt Q9NR09)	-0.51	-0.149	0.194
BLMH (UniProt Q13867)	0.51	0.365	0.0746
BLOC1S1 (UniProt P78537)	-0.0484	0.202	-0.255
BLOC1S2 (UniProt Q6QNY1)	2.75	1.1	1.61
BLOC1S3 (UniProt Q6QNY0)	0.923	0.625	0.0424
BLOC1S4 (UniProt Q9NUP1)	1.47	0.395	0.401
BLOC1S5 (UniProt Q8TDH9)	0.19	0.0962	0.446
BLVRA (UniProt P53004)	0.283	-0.236	-0.0313
BLVRB (UniProt P30043)	0.863	-0.0398	1.14
BLZF1 (UniProt Q9H2G9)	-0.0966	0.122	-0.103
BMP1 (UniProt P13497)	0.492	0.427	0.347
BMP2K (UniProt Q9NSY1)	-0.986	-0.217	0.122
BMS1 (UniProt Q14692)	0.575	0.482	0.723
BNIP1 (UniProt Q12981)	0.261	-0.294	0.0814

Target	thermal stability z-score [1, 3]	thermal stability z-score ([1]; arsenate co-treatment: none)	thermal stability z-score [2]
BNIP2 (UniProt Q12982)	1.13	0.0699	0.641
BNIP3 (UniProt Q12983)	0.679	0.193	2.44
BOD1L1 (UniProt Q8NFC6)	0.583	0.352	-0.589
BOLA2 (UniProt Q9H3K6)	0.16	0.49	0.583
BOLA3 (UniProt Q53S33)	-0.103	-0.245	0.0193
BOP1 (UniProt Q14137)	-1.64	-0.108	0.0419
BORCS5|LOH12CR1	1.36	1.29	0.518
BPGM (UniProt P07738)	-1.9	-0.479	-1.82
BPHL (UniProt Q86WA6)	-0.428	-0.368	-1.21
BPNT1 (UniProt O95861)	-0.0659	-0.197	-1.66
BPTF (UniProt Q12830)	0.137	0.144	-0.181
BRAF (UniProt P15056)	-0.207	0.176	0.328
BRAP (UniProt Q7Z569)	-0.31	0.051	0.485
BRAT1 (UniProt Q6PJG6)	-0.267	-0.15	0.562
BRCC3 (UniProt P46736)	-0.0792	0.172	0.468
BRD2 (UniProt P25440)	-0.0745	0.075	-0.153
BRD3 (UniProt Q15059)	0.0121	-0.107	-0.279
BRD4 (UniProt O60885)	0.496	0.462	-0.724
BRD7 (UniProt Q9NPI1)	-0.355	-0.169	-0.517
BRD8 (UniProt Q9H0E9)	0.111	-0.0134	-1.06
BRD9 (UniProt Q9H8M2)	0.218	0.153	0.496
BRE (UniProt Q9NXR7)	0.462	-0.15	0.319
BRF1 (UniProt Q92994)	-0.0333	-0.111	0.035
BRI3BP (UniProt Q8WY22)	0.227	0.0879	-0.544
BRIX1 (UniProt Q8TDN6)	0.442	-0.0247	1.3
BROX (UniProt Q5VW32)	1.03	1.02	-0.0457
BSDC1 (UniProt Q9NW68)	-0.585	-0.361	-0.209
